In ChEMBL document CHEMBL1201862, “PubChem BioAssay data set” (2004):
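Compound exposure: 48 hours, 5 concentrations, 96-well plates. GI50 marks 50% less growth.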 The source made the active and inactive calls. Rule as the data show it: active = GI50 up to about 1.1 µM and inactive = higher.

Assays:
Assay in all cases: NCI anticancer screen, dose series, 48 h
OVCAR-4 = system: OVCAR-4
MDA-MB-231 = system: MDA-MB-231
MOLT-4 = system: MOLT-4
ACHN = system: ACHN
HCC 2998 = system: HCC 2998
IGROV-1 = system: IGROV-1
NCI-H23 = system: NCI-H23
MDA-MB-435 = system: MDA-MB-435
SF-268 = system: SF-268
OVCAR-8 = system: OVCAR-8
SN12C = system: SN12C
KM12 = system: KM12
DU-145 = system: DU-145
SF-539 = system: SF-539
UO-31 = system: UO-31
HT-29 = system: HT-29
U-251 = system: U-251
UACC-257 = system: UACC-257
SNB-19 = system: SNB-19
A549 = system: A549

SMILES | GI50 (OVCAR-4) | GI50 (MDA-MB-231) | GI50 (MOLT-4) | GI50 (ACHN) | GI50 (HCC 2998) | GI50 (IGROV-1) | GI50 (NCI-H23) | GI50 (MDA-MB-435) | GI50 (SF-268) | GI50 (OVCAR-8) | GI50 (SN12C) | GI50 (KM12) | GI50 (DU-145) | GI50 (SF-539) | GI50 (UO-31) | GI50 (HT-29) | GI50 (U-251) | GI50 (UACC-257) | GI50 (SNB-19) | GI50 (A549)
CC(=O)Nc1ccc(S(=O)(=O)c2nnc(NC(C)=O)s2)cc1 | > 100 µM (inactive) | > 100 µM (inactive) | > 100 µM (inactive) | > 100 µM (inactive) | > 100 µM (inactive) | > 100 µM (inactive) | > 100 µM (inactive) | > 100 µM (inactive) | > 100 µM (inactive) | > 100 µM (inactive) | > 100 µM (inactive) | > 100 µM (inactive) | > 100 µM (inactive) | > 100 µM (inactive) | > 100 µM (inactive) | > 100 µM (inactive) | > 100 µM (inactive) | > 100 µM (inactive) | > 100 µM (inactive) | > 100 µM (inactive)
CCSc1c(C)c2c(n(Cc3ccc(OC)cc3)c1=O)Cc1ccccc1C2 | 21.4 µM (inactive) | 20.7 µM (inactive) | 2.53 µM (inactive) | 10.3 µM (inactive) | 13.6 µM (inactive) | 19 µM (inactive) | 20 µM (inactive) | 25.1 µM (inactive) | 11.8 µM (inactive) | 14.9 µM (inactive) | 12.8 µM (inactive) | 25.1 µM (inactive) | 24.7 µM (inactive) | 19.2 µM (inactive) | 12.4 µM (inactive) | 28.2 µM (inactive) | 15 µM (inactive) | 13.3 µM (inactive) | 18.2 µM (inactive) | 21.9 µM (inactive)
Nc1ccn(C2CCC(CO)O2)c(=O)n1 (stereo not given) | > 83 µM (inactive) | > 1000 µM (inactive) | 63.8 µM (inactive) | 785 µM (inactive) | > 100 µM (inactive) | > 100 µM (inactive) | > 100 µM (inactive) | > 1000 µM (inactive) | > 62.8 µM (inactive) | 156 µM (inactive) | > 100 µM (inactive) | > 100 µM (inactive) | 719 µM (inactive) | > 100 µM (inactive) | 836 µM (inactive) | > 100 µM (inactive) | > 100 µM (inactive) | > 100 µM (inactive) | > 100 µM (inactive) | > 100 µM (inactive)
COc1cc(/C=C2\CC(C)C/C(=C\c3ccc(O)c(OC)c3)C2=O)ccc1O (stereo not given) | 2.52 µM (inactive) | 2.06 µM (inactive) | 2.29 µM (inactive) | 3.13 µM (inactive) | 3.21 µM (inactive) | 2.4 µM (inactive) | 3.1 µM (inactive) | 2.32 µM (inactive) | 4.31 µM (inactive) | 9.2 µM (inactive) | 2.56 µM (inactive) | 1.85 µM (inactive) | 3.72 µM (inactive) | 3.12 µM (inactive) | 2.24 µM (inactive) | 6.37 µM (inactive) | 2.38 µM (inactive) | 3.87 µM (inactive) | 10.2 µM (inactive) | 3.64 µM (inactive)
CC(C)C[C@H](NC(=O)[C@H](Cc1ccc(F)cc1)NC(=O)c1ccccn1)B(O)O | < 0.01 µM (active) | < 0.01 µM (active) | < 0.01 µM (active) | < 0.01 µM (active) | < 0.01 µM (active) | < 0.01 µM (active) | < 0.01 µM (active) | < 0.01 µM (active) | < 0.01 µM (active) | < 0.01 µM (active) | < 0.01 µM (active) | < 0.01 µM (active) | < 0.01 µM (active) | < 0.01 µM (active) | < 0.01 µM (active) | < 0.01 µM (active) | < 0.01 µM (active) | < 0.01 µM (active) | < 0.01 µM (active) | < 0.01 µM (active)
CCC1(c2ccc(N3C(=O)c4cccc5cc([N+](=O)[O-])cc(c45)C3=O)cc2)CCC(=O)NC1=O (stereo not given) | 12.6 µM (inactive) | 5.16 µM (inactive) | 11.9 µM (inactive) | 11.5 µM (inactive) | 30.7 µM (inactive) | 5.4 µM (inactive) | 25.5 µM (inactive) | 24.3 µM (inactive) | 15.1 µM (inactive) | 12 µM (inactive) | 6.05 µM (inactive) | > 100 µM (inactive) | > 44.9 µM (inactive) | > 10 µM (inactive) | 4.44 µM (inactive) | 20.5 µM (inactive) | 9.84 µM (inactive) | 47.6 µM (inactive) | 35 µM (inactive) | 55.5 µM (inactive)
Cc1ncc(CO)c(/C=N/CCCCCC/N=C/c2c(CO)cnc(C)c2[O-])c1[O-].[Mg+2] | > 100 µM (inactive) | > 100 µM (inactive) | > 100 µM (inactive) | > 100 µM (inactive) | > 100 µM (inactive) | > 100 µM (inactive) | > 100 µM (inactive) | > 100 µM (inactive) | > 100 µM (inactive) | > 67.9 µM (inactive) | > 100 µM (inactive) | > 100 µM (inactive) | > 100 µM (inactive) | > 100 µM (inactive) | > 100 µM (inactive) | > 100 µM (inactive) | > 100 µM (inactive) | > 100 µM (inactive) | > 100 µM (inactive) | > 100 µM (inactive)
N#CCCN(CCC#N)c1ccc(C(=N/c2ccc(F)cc2)/N=N/c2ccc(Cl)cc2)cc1 | > 100 µM (inactive) | > 100 µM (inactive) | > 100 µM (inactive) | > 100 µM (inactive) | > 100 µM (inactive) | > 100 µM (inactive) | > 100 µM (inactive) | > 100 µM (inactive) | > 100 µM (inactive) | > 100 µM (inactive) | > 100 µM (inactive) | > 100 µM (inactive) | > 100 µM (inactive) | > 100 µM (inactive) | > 100 µM (inactive) | > 100 µM (inactive) | > 100 µM (inactive) | > 100 µM (inactive) | > 100 µM (inactive) | > 100 µM (inactive)
N/N=c1\[nH]c2ccccc2o1 | 46.5 µM (inactive) | > 100 µM (inactive) | 24.2 µM (inactive) | > 100 µM (inactive) | > 100 µM (inactive) | > 100 µM (inactive) | > 100 µM (inactive) | > 100 µM (inactive) | > 100 µM (inactive) | 64.6 µM (inactive) | > 100 µM (inactive) | > 100 µM (inactive) | > 100 µM (inactive) | > 100 µM (inactive) | 93.5 µM (inactive) | > 100 µM (inactive) | > 100 µM (inactive) | > 100 µM (inactive) | > 100 µM (inactive) | > 100 µM (inactive)
CCOC(=O)C(=O)NNc1nc2c(s1)C(=O)c1ccccc1C2=O | 1.85 µM (inactive) | 2.48 µM (inactive) | 3.33 µM (inactive) | 2.29 µM (inactive) | 14.9 µM (inactive) | 5.56 µM (inactive) | 2.24 µM (inactive) | 1.77 µM (inactive) | 4.12 µM (inactive) | 1.97 µM (inactive) | 1.87 µM (inactive) | 9.27 µM (inactive) | 17.7 µM (inactive) | 2.46 µM (inactive) | 2.29 µM (inactive) | 19.1 µM (inactive) | 7.06 µM (inactive) | 1.71 µM (inactive) | 15.1 µM (inactive) | 6.07 µM (inactive)
CCC1(O)CC(OC2CC(N(C)C)C(OC3CC(O)C(OC4CCC(=O)C(C)O4)C(C)O3)C(C)O2)c2c(cc3c(c2O)C(=O)c2c(O)ccc(O)c2C3=O)C1C(=O)OC (stereo not given) | < 0.01 µM (active) | < 0.0132 µM (active) | < 0.01 µM (active) | < 0.01 µM (active) | < 0.01 µM (active) | < 0.01 µM (active) | < 0.01 µM (active) | < 0.0122 µM (active) | < 0.01 µM (active) | < 0.01 µM (active) | < 0.01 µM (active) | < 0.01 µM (active) | < 0.01 µM (active) | < 0.01 µM (active) | < 0.01 µM (active) | < 0.01 µM (active) | < 0.01 µM (active) | < 0.01 µM (active) | < 0.0127 µM (active) | < 0.01 µM (active)
O=C1c2ccccc2NC(=S)[C@@H]2CCCN12 | > 100 µM (inactive) | > 100 µM (inactive) | > 100 µM (inactive) | > 100 µM (inactive) | > 100 µM (inactive) | > 100 µM (inactive) | > 100 µM (inactive) | > 100 µM (inactive) | > 100 µM (inactive) | > 100 µM (inactive) | > 100 µM (inactive) | > 100 µM (inactive) | > 100 µM (inactive) | > 100 µM (inactive) | > 100 µM (inactive) | > 100 µM (inactive) | > 100 µM (inactive) | > 100 µM (inactive) | > 100 µM (inactive) | > 100 µM (inactive)
N#Cc1c(-c2ccc([N+](=O)[O-])cc2)c2c([nH]c1=O)-c1ccccc1CCC2 | 65.6 µM (inactive) | > 100 µM (inactive) | 39.4 µM (inactive) | 37.5 µM (inactive) | 22.6 µM (inactive) | 46.8 µM (inactive) | > 100 µM (inactive) | 67.1 µM (inactive) | 68.7 µM (inactive) | 55.3 µM (inactive) | > 100 µM (inactive) | 40.7 µM (inactive) | 28.1 µM (inactive) | 52.7 µM (inactive) | 86.3 µM (inactive) | 55.3 µM (inactive) | 52.5 µM (inactive) | 80 µM (inactive) | 70.1 µM (inactive) | 42.8 µM (inactive)
N[C@H]1c2c(Br)sc(Br)c2C(=O)[C@H]1O | 11.4 µM (inactive) | 18.7 µM (inactive) | 5.14 µM (inactive) | 24.7 µM (inactive) | 13.8 µM (inactive) | 14 µM (inactive) | 3.64 µM (inactive) | 13.7 µM (inactive) | 24.9 µM (inactive) | 12.9 µM (inactive) | 1.56 µM (inactive) | 34.9 µM (inactive) | 20.3 µM (inactive) | 18.5 µM (inactive) | 20.3 µM (inactive) | 11.2 µM (inactive) | 14.4 µM (inactive) | 14.2 µM (inactive) | 21.8 µM (inactive) | 24.9 µM (inactive)
